Earlier results in patent publication US20140037700A1, “Composition and Method for Enhancing an Immune Response” (priority 2011, published 2014).

Key:
[1] = test system: anti-microbial peptide cathelicidin; settings: exposure of macrophages
[2] = test system: tuberculosis growth in human monocytes; parameters: dose or concentration left out as unconfirmed; settings: alone, in vitro; Denis et al.
[3] = in the presence of a normal or high calcium diet; DeLuca et al.
[4] = test system: M. tb cells in NRP2 state; settings: oxygen 0.06% of normal saturation (anaerobic)
[5] = combined with liposomes
TACO gene transcription = settings: human macrophages
[6] = test system: M. tuberculosis survival within macrophages

C=C1/C(=C\C=C2/CCC[C@]3(C)[C@@H]([C@H](C)CCCC(C)(C)O)CC[C@@H]23)C[C@@H](O)C[C@@H]1O [Calcitriol, 1,25-dihydroxyvitamin D]
bacillary replication in macrophages (M.tb within macrophages; even at extremely low concentrations, Crowle et al.): slow and stop bacillary replication | colony forming units (M.tb within macrophages; primary human macrophages infected with virulent M. tb): reduced colony forming units | expression of anti-microbial peptide cathelicidin [1]: induces expression | ability of human monocytes to restrict tuberculosis growth [2]: significant ability to restrict tuberculosis growth | prevention or suppression of autoimmune disease in models [3]: prevent or markedly suppress

NNC(=O)c1ccncc1 [isoniazid]
susceptibility of NRP2 cells to antibiotic [4]: resistant

Cc1ncc([N+](=O)[O-])n1CCO [metronidazole]
susceptibility of NRP2 cells to antibiotic [4]: sensitive

Monophosphoryl lipid A
mucosal immunoprotective responses [5]: induce mucosal immunoprotective responses

epigallocatechin-3-gallate [EGCG]
TACO gene transcription (TACO gene transcription): down-regulates TACO gene transcription in a dose-dependent manner | mycobacterium survival within macrophages ([6]; in vitro, flow cytometry and colony counts): substantially reduced mycobacterium survival | M. tuberculosis survival within macrophages ([6]; used prior to M. tb exposure in vitro): completely inhibits
